Data reported in PMC12168924, “Construction of the reduced nicotinamide adenine dinucleotide salvage pathway in artificial cells and its application in amino acid synthesis” (Chemical Science, 2025).

Columns and labels:
[1] = target: T1, ribose-phosphate pyrophosphokinase (RPPK) (Mycobacterium tuberculosis, UniProt P9WKE3); assay: HPLC of AMP formation, inhibition at rising ADP; format: biochemical; details: inhibitor; assay per b47: R-5-P, ATP, MgCl2, 40 mM KH2PO4, Tris-HCl pH 8.0, 37 °C
T1 construct: gene prs
T1 sequence (P9WKE3 whole entry): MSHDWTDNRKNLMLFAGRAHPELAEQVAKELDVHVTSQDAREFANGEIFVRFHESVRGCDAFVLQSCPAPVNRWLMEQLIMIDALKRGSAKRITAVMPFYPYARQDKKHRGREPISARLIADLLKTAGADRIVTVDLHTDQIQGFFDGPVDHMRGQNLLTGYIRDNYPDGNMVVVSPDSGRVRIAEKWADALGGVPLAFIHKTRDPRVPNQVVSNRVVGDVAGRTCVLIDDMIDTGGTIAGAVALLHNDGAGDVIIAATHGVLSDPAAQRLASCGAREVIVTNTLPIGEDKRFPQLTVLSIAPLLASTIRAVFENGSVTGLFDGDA

[2] = target: T2, nicotinamide phosphoribosyltransferase (NAMPT) (Chitinophaga pinensis, UniProt A0A979FZM9); assay: HPLC of NMN formation; format: biochemical; details: PRPP made in situ by RPPK, 5 mM MgCl2, pH 8.0, 37 °C
T2 construct: gene Cpin_0607
T2 sequence (A0A979FZM9 1-471): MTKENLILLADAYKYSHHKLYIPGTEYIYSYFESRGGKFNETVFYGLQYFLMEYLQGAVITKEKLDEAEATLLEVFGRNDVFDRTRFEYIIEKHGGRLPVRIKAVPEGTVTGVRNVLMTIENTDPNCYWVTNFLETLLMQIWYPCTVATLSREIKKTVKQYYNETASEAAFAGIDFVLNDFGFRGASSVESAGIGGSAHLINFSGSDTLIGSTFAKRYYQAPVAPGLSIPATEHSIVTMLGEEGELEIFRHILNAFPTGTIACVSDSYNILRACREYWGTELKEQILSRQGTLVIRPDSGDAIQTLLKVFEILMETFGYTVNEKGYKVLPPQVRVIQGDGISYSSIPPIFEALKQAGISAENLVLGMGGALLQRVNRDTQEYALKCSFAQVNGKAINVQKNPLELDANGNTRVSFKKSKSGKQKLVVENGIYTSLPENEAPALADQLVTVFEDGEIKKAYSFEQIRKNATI

HPLC of NMN depletion = substrate: NC(=O)c1ccc[n+]([C@@H]2O[C@H](COP(=O)(O)O)[C@@H](O)[C@H]2O)c1; assay: HPLC of NMN depletion; format: biochemical, Acinetobacter baylyi; details: assay per b51: ATP, MgCl2, 40 mM KH2PO4, 50 mM Tris-HCl pH 8.0, 37 °C, kinetic details in supplement

## Nc1ncnc2c1ncn2[C@@H]1O[C@H](COP(=O)(O)OP(=O)(O)O)[C@@H](O)[C@H]1O [ADP]
[1]
  HPLC of AMP formation, inhibition at rising ADP: ADP was found to significantly inhibit RPPK activity

## O=P(O)(O)OC[C@H]1O[C@H](OP(=O)(O)OP(=O)(O)O)[C@H](O)[C@@H]1O [PRPP]
[2]
  HPLC of NMN formation: PRPP, an enzyme cascade was employed to synthesize PRPP for assessing NAMPT activity

B1: nicotinamide mononucleotide adenylyltransferase (NMNAT) (Acinetobacter baylyi ADP1) (protein)
chain: MYKFDYLVFIGRFQPFHFAHLQTIQIALQQSREVIIALGSAQPERNIKNPFLAEERQKMILANFSAEDQARIHFVNIIDVYNDQKWVEQVKQLVNAIIESRSHVGLIGHFKDESSYYLKLFPEWTMVELESLKESMSATPMREAYYEGKIIESAFPEGTIQFLKTFQDSEIYKQLQQKYRAQDSSNLI
HPLC of NMN depletion
  Km: 396.6 ± 59.6 µM
